In patent publication US20130295036A1, “METHOD OF USING WOOD EXTRACTS IN COSMETIC AND HYGIENE PRODUCTS” (FLAVITPURE, INC., priority 2012, published 2013):
Each block holds one compound with its values, some of them ahead of it.

Assays:
[1] = system: 5-LOX mediated LT biosynthesis; assay: Leukotriene (LT) biosynthesis inhibition; format: biochemical
From the text: (§1) The body's early defense in response to trauma, inflammation or infection, the acute phase response (APR), is a complex set of systemic reactions seen shortly after exposure to a triggering event. The APR is induced by protein hormones called cytokines acting as messengers between the local site of injury and the hepatocytes synthesizing the acute phase proteins such as serum amyloid A. Most cytokines have multiple sources, targets and multiple functions. The pro-inflammatory cytokines can be divided into two major groups with respect to acute phase proteins inductions, the Interleukin-1 (IL-1) type (including Tumor Necrosis Factor-a, TNF-a) and the IL-6 type cytokines (including IL-6 cytokine). These cytokines are secreted primarily by monocytes activated by bacterial toxins or in response to local tissue injury.

COX-2 = target: T1, COX-2 (Homo sapiens, UniProt P35354); assay: COX-2 inhibition; format: biochemical
T1 sequence (P35354 18-604): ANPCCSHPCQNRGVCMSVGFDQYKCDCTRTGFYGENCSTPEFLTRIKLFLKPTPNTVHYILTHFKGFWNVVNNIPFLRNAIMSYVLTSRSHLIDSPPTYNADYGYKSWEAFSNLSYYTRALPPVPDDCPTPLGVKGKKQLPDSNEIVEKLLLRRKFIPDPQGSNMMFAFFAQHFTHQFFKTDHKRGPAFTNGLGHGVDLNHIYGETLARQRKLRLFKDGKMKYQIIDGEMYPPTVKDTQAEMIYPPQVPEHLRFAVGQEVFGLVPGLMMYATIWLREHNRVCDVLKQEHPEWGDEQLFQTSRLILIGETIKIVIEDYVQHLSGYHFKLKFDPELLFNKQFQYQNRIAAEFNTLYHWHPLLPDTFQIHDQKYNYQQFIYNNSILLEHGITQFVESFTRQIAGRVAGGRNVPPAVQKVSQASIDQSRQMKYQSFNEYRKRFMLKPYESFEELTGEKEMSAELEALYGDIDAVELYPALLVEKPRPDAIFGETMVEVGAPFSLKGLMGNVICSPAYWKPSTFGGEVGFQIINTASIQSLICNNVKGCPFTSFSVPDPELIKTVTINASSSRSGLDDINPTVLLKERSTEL
From the text: as §1

lipid peroxidation = conditions: in vitro and ex vivo; cited from earlier work
serum and liver lipids = conditions: following exposure to toxic ionizing radiation; cited from earlier work
[2] = system: Antioxidant Response Element; conditions: cited from earlier work
rats = conditions: high levels for long periods of time; cited from earlier work
[3] = system: dendritic cells of bone marrow and spleen; conditions: cited from earlier work

SMILES: C=CC(C)(O)CCC1C(=C)CC(OC(C)=O)C2C(C)(C)CCCC12C (stereo not shown) [Larixyl acetate]
LT biosynthesis inhibitory activity [1]: highly active

SMILES: C=C[C@@]1(C)CC[C@H]2C(=CC[C@@H]3[C@]2(C)CCC[C@@]3(C)C(=O)O)C1 [Isopimaric acid]
LT biosynthesis inhibitory activity [1]: potent inhibitor

SMILES: CC(C)c1ccc2c(c1)CC[C@H]1[C@](C)(CO)CCC[C@]21C [dehydroabietinol]
LT biosynthesis inhibitory activity [1]: high LT formation inhibitory activity

COX-2 inhibitory activity (COX-2): moderate
SMILES: CC(C)C1=CC2=C(CC1)[C@@]1(C)CCC[C@@](C)(C(=O)O)[C@@H]1CC2 [palustric acid]
LT biosynthesis inhibitory activity [1]: less pronounced

SMILES: O=C1c2c(O)cc(O)cc2O[C@H](c2ccc(O)c(O)c2)[C@H]1O [Dihydroquercetin (taxifolin), (2R,3R)-2-(3,4-dihydroxyphenyl)-3,5,7-trihydroxy-chroman-4-one]
inhibition of lipid peroxidation (lipid peroxidation): inhibits lipid peroxidation
peroxidation of serum and liver lipids (serum and liver lipids): inhibited
activation of Antioxidant Response Element [2]: significantly activates
toxic effects (rats): No toxic effects
production of cytokines, formation of ROS and NO, and change in intracellular Ca2+ levels [3]: significant inhibitory effect
